target: BTK (Homo sapiens, UniProt Q06187); experiment: biochemical; settings: read-out: BTK inhibition (%)
Sequence (Q06187 402-655 limits assumed): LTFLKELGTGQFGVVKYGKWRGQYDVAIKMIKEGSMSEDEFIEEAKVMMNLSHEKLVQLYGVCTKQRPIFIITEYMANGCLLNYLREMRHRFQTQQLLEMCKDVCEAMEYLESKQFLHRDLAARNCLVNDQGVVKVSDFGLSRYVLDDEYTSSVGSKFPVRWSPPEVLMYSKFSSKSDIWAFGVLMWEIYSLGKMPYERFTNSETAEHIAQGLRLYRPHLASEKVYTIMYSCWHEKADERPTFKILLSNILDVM

CC(=O)O[C@@H]1[C@H]2[C@@H](OC(=O)Cc3ccccc3)[C@@H](C)C[C@]2(OC(C)=O)C(=O)/C(C)=C/[C@@H]2[C@H](CC[C@]13CO3)C2(C)C [PCM-0216313] showed an inhibition at 10 µM of -27.8%.

same assay, conditions: read-out: BTK inhibition (%), 0.75 uM BTK, […] probe 3l, 15 min preincubation

In order of rising inhibition at 10 µM:
1. Cc1cc(=O)c2c(O)c3c(cc2o1)OC(C)(C)[C@@H](O[C@@H]1O[C@H](CO)[C@@H](O)[C@H](O)[C@H]1O)C3 [PCM-0216445]  -30.1%
2. Cn1c(=O)c2[nH]cnc2n(C)c1=O [PCM-0064445]  -24.9%
3. CC(C)(C)OC(=O)N[C@@H]1CCCC[C@H]1N [PCM-0215045]  -24.1%
4. Nc1ccn([C@H]2CC[C@@H](CO)O2)c(=O)n1 [PCM-0065156]  -22.6%
5. CCCN(CCC)CCc1cccc2c1CC(=O)N2 [PCM-0065591]  -18.7%
6. Fc1ccc2[nH]ccc2c1-c1nc(N2CCOCC2)c2sc(CN3CCN(CC4CC4)CC3)cc2n1 [PCM-0215422]  -18.6%
7. C[C@H](NC(=O)C(=O)Nc1ccccc1C(C)(C)C)C(=O)N[C@@H](CC(=O)O)C(=O)COc1c(F)c(F)cc(F)c1F [PCM-0215672]  -17.9%
8. COC(=O)CC1CC(c2ccc(O)cc2)=NO1 (stereo not shown) [PCM-0216118]  -16.6%
9. C[C@H]1[C@H](C)CC[C@]2(C(=O)O[C@@H]3O[C@H](CO[C@@H]4O[C@H](CO)[C@@H](O[C@@H]5O[C@@H](C)[C@H](O)[C@@H](O)[C@H]5O)[C@H](O)[C@H]4O)[C@@H](O)[C@H](O)[C@H]3O)CC[C@]3(C)C(=CC[C@@H]4[C@@]5(C)C[C@@H](O)[C@H](O)[C@@](C)(CO)[C@@H]5CC[C@]43C)[C@H]12 [PCM-0214874]  -15.9%
10. C=CC(=O)N1C/C(=C\c2ccc([N+](=O)[O-])cc2)C(=O)/C(=C/c2ccc([N+](=O)[O-])cc2)C1 [PCM-0214766]  -15.6%
11. CCC[C@H](Nc1nc(-c2ccc(NC(=O)NCC)c(OC)c2)ncc1C)c1cccnc1 [PCM-0095772]  -14%
12. CC(C)c1noc(N2CCC(COc3ccc(-c4ccc(S(C)(=O)=O)cc4)nc3)CC2)n1 [PCM-0095313]  -14%
13. Oc1cccc(O)c1O [PCM-0214990]  -12.4%
14. CCN1CCN(c2cc3c(cc2F)c(=O)c(C(=O)O)cn3C2CC2)CC1 [PCM-0090392]  -11.9%
15. NC[C@@](O)(c1ccc(Cl)cc1)c1ccc(-c2cn[nH]c2)cc1 [PCM-0215408]  -10.3%
16. CC(C)[C@H](C)[C@@H](O)[C@H](O)[C@@H](C)[C@H]1CC[C@H]2[C@@H]3COC(=O)[C@H]4C[C@H](O)[C@H](O)C[C@]4(C)[C@H]3CC[C@]12C [PCM-0215160]  -10.1%
17. Nc1nc(=O)n([C@@H]2CS[C@H](CO)O2)cc1F [PCM-0086099]  -10.1%
18. NCCCC[C@@H]1NC(=O)[C@@H](Cc2ccccc2)NC(=O)[C@H](CC(=O)O)NC(=O)CNC(=O)[C@H](CCCN=C(N)N)NC1=O [PCM-0215471]  -10%
19. CC(C)=CCC[C@](C)(O[C@@H]1O[C@H](CO[C@@H]2O[C@@H](CO)[C@H](O)[C@H]2O)[C@@H](O)[C@H](O)[C@H]1O)[C@H]1CC[C@]2(C)[C@@H]1[C@H](O)C[C@@H]1[C@@]3(C)CC[C@H](O[C@@H]4O[C@H](CO)[C@@H](O)[C@H](O)[C@H]4O[C@@H]4O[C@H](CO)[C@@H](O)[C@H](O)[C@H]4O)C(C)(C)[C@@H]3CC[C@]12C [PCM-0216509]  -10%
20. CC(=O)Nc1cccc2c1c(Sc1ccc(Cl)cc1)c(C)n2CC(=O)O [PCM-0215238]  -9.3%
21. CC(C)C1=CC2=CC[C@@H]3[C@](C)(CCC[C@@]3(C)C(=O)O)[C@H]2CC1 [PCM-0215977]  -9.3%
22. Nc1c2c(nc3ccccc13)CCCC2 [PCM-0064528]  -7.8%
23. COc1ccccc1OCCNCC(O)COc1cccc2[nH]c3ccccc3c12 (stereo not shown) [PCM-0065111]  -7.8%
24. CC(=O)[C@H]1CC[C@H]2[C@@H]3CCC4=CC(=O)CC[C@]4(C)[C@H]3CC[C@]12C [PCM-0064761]  -7.8%
25. Cn1ncc(Cl)c1-c1cc(C(=O)N[C@H](CN)Cc2ccc(F)c(F)c2)oc1Cl [PCM-0215609]  -7.6%
26. Cc1ccc(C=O)o1 [PCM-0216625]  -5.4%
27. CC(C)C1CCC(C(=O)N[C@H](Cc2ccccc2)C(=O)O)CC1 (stereo partly shown) [PCM-0095239]  -4.7%
28. CC12CCC(CC1=O)C2(C)C (stereo not shown) [PCM-0214819]  -3.9%
29. C=C1/C(=C\C=C2/CCC[C@]3(C)[C@@H]([C@H](C)CCCC(C)C)CC[C@@H]23)C[C@@H](O)C[C@@H]1O [PCM-0086012]  -3.1%
30. CC(C)C[C@H](NC(=O)CNC(=O)c1cc(Cl)ccc1Cl)B1OC(=O)CC(CC(=O)O)(C(=O)O)O1 (stereo partly shown) [PCM-0095225]  -2.1%
31. N[C@@H](CC(=O)N1CCn2c(nnc2C(F)(F)F)C1)Cc1cc(F)c(F)cc1F [PCM-0214812]  -1.6%
32. C[C@H](CCC(=O)NCCS(=O)(=O)O)[C@H]1CC[C@H]2[C@@H]3[C@H](O)C[C@@H]4C[C@H](O)CC[C@]4(C)[C@H]3CC[C@]12C [PCM-0215035]  -0.8%
33. CCN(CC)c1ccc(/C=N/NC(=O)c2ccc(O)cc2)cc1 [PCM-0216144]  0%
34. OCCn1cc(-c2cnc3nnn(Cc4ccc5ncccc5c4)c3n2)cn1 [PCM-0095071]  0%
35. COC(=O)c1ccc2c(c1)nc(NC(=O)c1ccccc1)n2CCCc1ccccc1 [PCM-0215403]  0%
36. Nc1nc2c(ncn2[C@@H]2O[C@H](CO)[C@@H](O)[C@H]2O)c(=O)[nH]1 [PCM-0094848]  0%
37. O=c1c2ccccc2nc2n1CCc1c-2[nH]c2ccccc12 [PCM-0065551]  0.7%
38. Cc1cc(OCc2nnc(SC3CCCC3)n2-c2cccnc2)ccc1-c1ccc(S(C)(=O)=O)cc1 [PCM-0095789]  0.8%
39. CC1=C[C@H](O)CC(C)(C)[C@H]1/C=C/C(C)=C/C=C/C(C)=C/C=C/C=C(C)/C=C/C=C(C)/C=C/C1=C(C)C[C@@H](O)CC1(C)C [PCM-0215916]  0.8%
40. Cc1nccn1CCC(C(N)=O)(c1ccccc1)c1ccccc1 [PCM-0216555]  1.5%
41. C[C@H]1CC[C@@]2(OC1)O[C@H]1C[C@H]3[C@@H]4CC[C@@H]5C[C@@H](O[C@@H]6O[C@H](CO)[C@H](O)[C@H](O)[C@H]6O[C@@H]6O[C@H](CO)[C@@H](O)[C@H](O)[C@H]6O)CC[C@]5(C)[C@H]4CC[C@]3(C)[C@H]1[C@@H]2C [PCM-0216400]  1.5%
42. CC(=O)NC(CC(C)C)C(=O)O (stereo not shown) [PCM-0214817]  1.6%
43. C#C[C@]1(OC(C)=O)CC[C@H]2[C@@H]3CCC4=C[C@@H](OC(C)=O)CC[C@@H]4[C@H]3CC[C@@]21C [PCM-0214663]  2.3%
44. Nc1ncnc2c1ncn2[C@@H]1O[C@H](COP(=O)(O)OP(=O)(O)O)[C@@H](O)[C@H]1O [PCM-0216291]  3.1%
45. CN(C)N(C)C(=O)[C@@]1(Cc2ccccc2)CCCN(C(=O)[C@@H](Cc2c[nH]c3ccccc23)NC(=O)C(C)(C)N)C1 [PCM-0215100]  4.6%
46. C[C@H]1O[C@@H](O[C@H]2CC[C@@]3(C)[C@@H](CC[C@]4(C)[C@@H]3C=C[C@]35OC[C@@]6(CCC(C)(C)C[C@H]63)[C@H](O)C[C@]54C)[C@]2(C)CO)[C@H](O)[C@@H](O[C@@H]2O[C@H](CO)[C@@H](O)[C@H](O)[C@H]2O)[C@H]1O [PCM-0216171]  5.4%
47. CN(C)C(=O)[C@H](O)[C@H](Cc1ccccc1)NC(=O)c1cc2cc(Cl)ccc2[nH]1 [PCM-0065218]  5.4%
48. Cc1ccc2c(c1)c1c(n2CCc2ccc(C)nc2)CCN(C)C1 [PCM-0095683]  6.2%
49. CNCC(O)c1ccc(O)cc1 (stereo not shown) [PCM-0065519]  7%
50. O=c1ccn([C@@H]2O[C@H](CO)[C@@H](O)[C@H]2O)c(=O)[nH]1 [PCM-0091168]  7.8%
51. CC1(C)CCCC2(C)OC(=O)C=C12 (stereo not shown) [PCM-0214965]  8.6%
52. CCCOc1ccc2nc(NC(=O)OC)[nH]c2c1 [PCM-0086075]  10.2%
53. O=C(Nc1ccccc1-c1cn2c(CN3CCNCC3)csc2n1)c1cnc2ccccc2n1 [PCM-0094935]  10.3%
54. O=C(NO)c1ccc(CC(=O)N(CCO)c2ccccc2)cc1 [PCM-0215415]  10.8%
55. CN1CCN2c3ncccc3Cc3ccccc3C2C1 (stereo not shown) [PCM-0086153]  12.5%
56. CCN(CC)CCOc1ccc(C(=C(Cl)c2ccccc2)c2ccccc2)cc1 [PCM-0090069]  13.2%
57. COC(=O)c1cc(O)c(O)c(O)c1 [PCM-0215013]  17.9%
58. CCn1c(=O)c(-c2ccc(-c3cncs3)cc2Cl)cc2cnc(Nc3ccc(N4CCN(C)CC4)cc3)nc21 [PCM-0215453]  18.6%
59. CC1=C(C(=O)Nc2ccc3[nH]ncc3c2)C(c2ccc(F)cc2)NC(=O)N1 (stereo not shown) [PCM-0215810]  19.3%
60. CC(C)=CCC[C@](C)(O)[C@H]1CC[C@]2(C)[C@@H]1[C@H](O)C[C@@H]1[C@@]3(C)CC[C@H](O)C(C)(C)[C@@H]3CC[C@]12C [PCM-0214857]  21%
61. CCCS(=O)(=O)Nc1ccc(F)c(C(=O)c2c[nH]c3ncc(Cl)cc23)c1F [PCM-0094979]  23.4%
62. COc1c(C)c(O)cc2[o+]c(-c3ccccc3)ccc12 [PCM-0216513]  38.6%
63. O=c1ncn2nc(Sc3ccc(F)cc3F)ccc2c1-c1c(Cl)cccc1Cl [PCM-0214781]  40%
64. COCCCc1sc(-c2ccccc2)nc1C(=O)Nc1ccccc1-c1nc2cc(CN3CCCC3)cnc2s1 [PCM-0215812]  57.9%
65. CN(CC(=O)N(Cc1ccc(C2CCCCC2)cc1)c1ccc(C(=O)O)cc1)S(=O)(=O)c1c(F)c(F)c(F)c(F)c1F [PCM-0095763]  68.7%
66. Cc1c(CN2CCN(C(=O)[C@H](C)O)CC2)sc2c(N3CCOCC3)nc(-c3cnc(N)nc3)nc12 [PCM-0095406]  75.2%
67. CCNC(=O)C#Cc1ccc2c(C(=Nc3ccc(CN(C)C)cc3)c3ccccc3)c(O)[nH]c2c1 [PCM-0215488]  88.3%
68. COc1ccc2cc3[n+](cc2c1O)CCc1cc2c(cc1-3)OCO2 [PCM-0216489]  97.3%
69. Cc1cc(Nc2nc(N[C@@H](C)c3ccc(F)cc3)c(C#N)cc2F)n[nH]1 [PCM-0095250]  99.3%
